Measured values: patent US20040162345A1, “Compounds with NEP/MP-inhibitory activity and uses thereof” (Solvay Pharmaceuticals GmbH, priority 2001, published 2004)
Entries after “also recorded” stand apart in the source; their conditions may differ. Like-named read-outs stand apart in the source and are kept apart here. Marks after values point to notes of the source that are not given here. No end group written: not given here.

Key:
[1] = target: T1, His6-tagged IGS5 ectodomain (Homo sapiens, UniProt Q495T6); experiment: IGS5 enzyme inhibition assay (fluorescence-quenched big-ET-1 analog, HPLC); assay type: biochemical; conditions: for IC50: conversion of labeled fluorescent big-ET-1 analog
T1 construct: Enzyme: IGS-5 (sol hu)(his)6; or: His6-tagged IGS5 ectodomain;; made in house; host or cells: Sf9 insect cells, recombinant baculovirus IGBV73, purified from culture supernatant
T1 sequence (Q495T6 49-779 limits assumed): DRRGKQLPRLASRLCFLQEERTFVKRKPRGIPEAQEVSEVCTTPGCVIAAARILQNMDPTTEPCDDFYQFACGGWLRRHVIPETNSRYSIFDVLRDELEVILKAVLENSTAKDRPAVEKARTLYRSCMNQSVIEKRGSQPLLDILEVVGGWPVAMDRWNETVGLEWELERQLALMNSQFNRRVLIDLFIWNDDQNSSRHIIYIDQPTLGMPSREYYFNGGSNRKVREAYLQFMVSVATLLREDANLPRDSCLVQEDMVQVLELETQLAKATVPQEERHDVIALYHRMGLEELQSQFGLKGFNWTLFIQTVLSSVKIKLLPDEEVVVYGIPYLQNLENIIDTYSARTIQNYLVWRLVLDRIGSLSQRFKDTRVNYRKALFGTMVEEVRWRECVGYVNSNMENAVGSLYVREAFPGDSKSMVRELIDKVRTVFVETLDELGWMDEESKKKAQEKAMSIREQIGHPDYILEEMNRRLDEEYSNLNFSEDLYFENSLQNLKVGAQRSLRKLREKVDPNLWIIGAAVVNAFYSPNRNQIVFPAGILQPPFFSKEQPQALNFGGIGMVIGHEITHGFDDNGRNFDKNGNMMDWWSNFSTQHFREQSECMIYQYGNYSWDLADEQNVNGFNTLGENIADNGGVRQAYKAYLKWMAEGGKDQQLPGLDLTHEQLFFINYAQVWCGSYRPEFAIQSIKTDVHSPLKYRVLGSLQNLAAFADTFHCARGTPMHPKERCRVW
Procedure: (§1) The enzymatic activity of IGS5 polypeptides of the invention was tested with regard to the metabolism of biologically active peptides. In particular it was tested whether these IGS5 polypeptides may act on a variety of vasoactive peptides known in the state of the art e.g. such like atrial natriuretic peptide (ANP), bradykinin, big-endothelin (big-ET-1), endothelin (ET-1), substance P and angiotensin-1. In the context of the present invention in particular it was tested whether the IGS5 ectodomain, which is a novel human metalloprotease, hydrolyzes said vasoactive peptides. For comparison the assay was also performed for a known member of the metalloprotease family which was described earlier as soluble secreted endopeptidase (SEP) by Emoto et al. (J. Biol. Chem., Vol. 274 (1999): pp. 32469-32477). Furthermore, it was tested whether the activity of IGS5 to convert a big-ET-1 analog (the so-called 17 aa big-ET-1) may be inhibited by reference compounds that are used to determine the inhibition properties with regard to enzymes having ECE and/or NEP-characteristics.
Enzyme: IGS-5 (sol hu)(his)6; or: His6-tagged IGS5 ectodomain;
stock solution: 53 μg/ml in 20 mM HEPES pH 7.2, 5% glycerol, 0.005% Tween20, 100 mM NaCl, purity >99%; storage at 4° C.
working solution: stock solution diluted with assay buffer to 10 μg/ml.
Substrate: Mca-Asp-Ile-Ala-Trp-Phe-Dpa-[…]COOH;
Fluorescence-quenched big-ET-1 analog;
Assay buffer: 100 mM Tris pH 7.0, 250 mM NaCl.
All test compounds were dissolved in DMSO at 10 mM and were further diluted with assay buffer.
A quantity of 70 μl of the assay buffer, of 10 μl enzyme working solution and of 10 μl test compound solution were mixed in an Eppendorf vial and preincubated at 37° C. for 15 minutes. Then, 10 μl substrate stock solution was added and the reaction mixture was incubated at 37° C. for 60 minutes to allow for enzymatic hydrolysis. Subsequently the enzymatic reaction was terminated by heating at 95° C. for 5 minutes. After centrifugation (Heraeus Biofuge B, 3 min) the supernatant was subjected to HPLC analysis.
In order to separate the remaining substrate from the cleavage products reversed phase HPLC technique was used with a CC 125/4 Nucleosil 300/5 C18 RP column and a CC 8/4 Nucleosil 100/5 C18 precolumn (commercially available from Macherey-Nagel, Düren, Germany). Thus, 60 μl of the reaction samples obtained in Example 7b were injected into the HPLC, and the column was eluted at a flow rate of 1 ml/min by applying the following gradient and solutions: […]
The increasing fluorescence signal of the HPLC-peak of the peptide with the unquenched Mca-fluorophor after hydrolysis was taken as the basis for any calculation.
This signal was compared for the samples with and without inhibitor and % inhibition was calculated on basis of the respective peak areas.
% inhib=100*(1−Ainhib/Acontrol)
All samples were run in duplicate and mean values were used.
(§2) Furthermore, the potency of metalloprotease inhibitor compounds and reference compounds to suppress the conversion of big-ET to ET-1 was examined as described in this example 7, using a labeled fluorescent big-ET-1 analog. The procedures applied in the enzyme assays are described above in the examples 4 with regard to IGS5, in example 5 with regard to NEP, and in example 6 with regard to ECE.

[2] = system: patients with congestive heart failure; experiment: Open, baseline controlled pilot trial in patients with congestive heart failure; assay type: in vivo, human; conditions: following compound Ia-2 administration; p<0.001
Procedure: To proof the concept of clinical efficacy and safety of compound Ia-2 in man, 6 clinical trials were conducted in healthy volunteers and 2 proof of concept trials were conducted in patients: One randomized, placebo-controlled double-blind trial in patients with hypertension (N=191) and one open, baseline controlled pilot trial in patients with congestive heart failure (N=29). […] In the Intent-to-treat patient population (ITT), office diastolic blood pressure versus placebo decreased by −6.9 mmHg (last value under treatment; p<0.001) and office systolic blood pressure versus placebo decreased by −9.2 mmHg (last value under treatment; p=0.003) at the highest dose investigated (200 mg bid).

[3] = target: Neutral endopeptidase (E.C. 3.4.24.11) (Sus scrofa, UniProt A0A4X1SQE6); experiment: NEP enzyme inhibition assay (methionin-enkephalin substrate, HPLC); assay type: biochemical, pig
Neutral endopeptidase (E.C. 3.4.24.11), sequence (A0A4X1SQE6 entry or part of it): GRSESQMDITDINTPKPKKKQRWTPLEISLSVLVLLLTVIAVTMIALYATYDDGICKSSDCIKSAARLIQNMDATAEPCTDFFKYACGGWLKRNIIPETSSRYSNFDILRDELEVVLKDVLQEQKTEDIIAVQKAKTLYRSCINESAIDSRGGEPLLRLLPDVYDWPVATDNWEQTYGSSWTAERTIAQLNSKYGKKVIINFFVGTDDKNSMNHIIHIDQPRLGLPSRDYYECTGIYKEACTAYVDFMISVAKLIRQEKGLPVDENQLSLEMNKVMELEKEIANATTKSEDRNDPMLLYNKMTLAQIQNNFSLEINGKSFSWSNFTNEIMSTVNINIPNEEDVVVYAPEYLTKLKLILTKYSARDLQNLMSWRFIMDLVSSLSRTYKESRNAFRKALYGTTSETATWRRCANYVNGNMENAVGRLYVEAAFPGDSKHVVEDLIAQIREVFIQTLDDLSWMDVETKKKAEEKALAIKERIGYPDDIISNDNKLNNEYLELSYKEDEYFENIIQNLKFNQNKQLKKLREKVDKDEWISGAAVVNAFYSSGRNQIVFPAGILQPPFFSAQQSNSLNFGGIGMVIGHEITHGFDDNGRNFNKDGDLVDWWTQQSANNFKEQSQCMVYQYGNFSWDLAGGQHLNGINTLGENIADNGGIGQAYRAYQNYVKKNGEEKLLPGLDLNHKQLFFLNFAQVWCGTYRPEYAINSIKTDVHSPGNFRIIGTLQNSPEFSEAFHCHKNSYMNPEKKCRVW
Procedure: Neutral endopeptidase (E.C. 3.4.24.11) was prepared from pig kidney cortex according to the method of Gee et al. (Biochem J 1985 May 15;228(1):119-26) and purified as reported by Relton et al. (Biochem J 1983 Dec. 1;215(3):519-23). For the enzyme inhibition assay 10 ng of the purified enzyme, 20 μM substrate (methionin-enkephalin) and various inhibitor concentrations were used. The assay buffer was 50 mM Tris-(hydroxymethyl)-aminomethan/HCl pH 7.4, the total assay volume was 100 μl. After a preincubation period of 5 min of enzyme and inhibitor, the substrate was added and subsequently a second incubation phase for enzyme induced substrate hydrolysis at 37° C. for 30 min was initiated. The enzymatic reaction was stopped by heating at 95° C. for 5 min. After centrifugation the supernatant was subjected to HPLC. The products of enzymatic substrate hydrolysis were separated from the native substrate by HPLC technique and the inhibitor potency calculated by comparing the peak areas of the products with the peak area of native substrate for both, the samples with and without inhibitor (control). Blanks without enzyme, controls without inhibitor, samples with inhibitor solvent instead of the inhibitor and samples with a standard inhibitor were added to each assay run.
as §2

IGS5 polypeptide = target: T2, IGS5 polypeptide (Homo sapiens, UniProt Q495T6); experiment: Hydrolysis of vasoactive peptides by IGS5 polypeptides; assay type: biochemical; conditions: 0.5 μM substrate, 2 h, 37° C.
T2 construct: Enzyme: IGS-5 (sol hu)(his)6; or: His6-tagged IGS5 ectodomain;; made in house; host or cells: Sf9 insect cells, recombinant baculovirus IGBV73, purified from culture supernatant
T2 sequence (Q495T6 49-779 limits assumed): T1 sequence (Q495T6 49-779 limits assumed)
Procedure: as §1

[4] = target: T3, SEP (soluble secreted endopeptidase) (Mus musculus, UniProt Q9JLI3); conditions: 10 μg SEP; 0.5 μM substrate; 12 h, 37° C.; cited from earlier work
T3 sequence (Q9JLI3 63-765 limits assumed): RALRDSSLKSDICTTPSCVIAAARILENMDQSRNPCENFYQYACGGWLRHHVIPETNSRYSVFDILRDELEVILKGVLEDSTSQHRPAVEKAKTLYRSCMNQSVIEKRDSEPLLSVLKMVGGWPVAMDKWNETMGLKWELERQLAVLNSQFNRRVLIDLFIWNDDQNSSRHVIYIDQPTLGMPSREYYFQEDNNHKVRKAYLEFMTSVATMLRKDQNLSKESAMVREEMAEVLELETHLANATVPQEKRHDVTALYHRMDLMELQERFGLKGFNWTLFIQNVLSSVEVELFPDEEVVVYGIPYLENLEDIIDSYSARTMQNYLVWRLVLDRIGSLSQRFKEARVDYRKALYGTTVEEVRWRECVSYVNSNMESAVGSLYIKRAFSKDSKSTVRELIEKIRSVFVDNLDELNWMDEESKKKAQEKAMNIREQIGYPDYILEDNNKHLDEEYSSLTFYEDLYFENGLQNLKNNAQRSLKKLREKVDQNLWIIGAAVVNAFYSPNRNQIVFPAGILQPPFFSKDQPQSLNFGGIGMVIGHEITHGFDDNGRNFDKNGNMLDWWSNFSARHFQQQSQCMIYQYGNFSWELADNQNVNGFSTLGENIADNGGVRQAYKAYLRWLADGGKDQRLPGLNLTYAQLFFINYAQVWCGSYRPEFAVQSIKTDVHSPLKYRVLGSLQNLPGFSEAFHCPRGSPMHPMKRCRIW

Compound | % Hydrolysis by IGS5 Polypeptide (IGS5 polypeptide; 100 μg IGS5 polypeptide) | % Hydrolysis by SEP (Emoto et al.) [4] [%] | other results
tert-Butyl (3S)-3-(1-benzylethylphosphonomethyl-cyclopentane-1-carbonylamino)-2,3,4,5-tetrahydro-2-oxo-1H-1-benzazepine-1-acetate [compound Ib-8] | – | – | IC50 [1]: 2.9 nM
O=C(O)CN1C(=O)[C@@H](NC(=O)C2(C[C@@H](CCc3ccccc3)C(=O)O)CCCC2)CCc2ccccc21 [compound Ia-1, (3S,2′R)-3-{1-[2′-carboxy-4′-phenylbutyl]-cyclopentane-1-carbonylamino}-2,3,4,5-tetrahydro-2-oxo-1H-1-benzazepine-1-acetic acid] | – | – | correlation between log plasma concentrations of compound Ia-1 and plasma levels of big-ET [2]: significant positive correlation
CC(C)C[C@H](NP(=O)(O)O[C@@H]1O[C@@H](C)[C@H](O)[C@@H](O)[C@H]1O)C(=O)N[C@@H](Cc1c[nH]c2ccccc12)C(=O)O [Phosphoramidon] | – | – | inhibition of IGS5 activity (in words) [1]: inhibits IGS5 with high potency; IC50 [1]: 18 nM; IC50 [3]: 2 nM
Cc1nn(-c2ccccc2)c(NC(=O)NS(=O)(=O)c2ccc(Cl)cc2)c1C#N.[Na] [monosodium salt] | – | – | IC50 [1]: > 10000 nM; IC50 ([3]; 20 μM methionin-enkephalin, read-out: NEP IC50): > 1000 nM
Mca-Asp-Ile-Ala-Trp-Phe-Dpa-Thr-Pro-Glu-His-Val-Val-Pro-Tyr-Gly-Leu-Gly-COOH [17 aa big-ET-1] | 41% | – | –
Cc1nn(-c2ccccc2)c(NC(=O)NS(=O)(=O)c2ccc(Cl)cc2)c1C#N.[Na] | – | – | inhibition of IGS5 activity (in words) ([1]; monosodium salt): no inhibition of IGS5; also recorded: do not affect the activity of IGS5
Angiotensin 1: vasoactive peptide tested as substrate (DRVYIHPFHL; Angiotensin-1; UniProt P01019 25-34, looked up) | 15*** % | >95 | –
CC[C@H](C)[C@H](NC(=O)[C@H](CC(=O)O)NC(=O)[C@H](CC(C)C)NC(=O)[C@H](Cc1c[nH]cn1)NC(=O)[C@@H]1CSSC[C@H](N)C(=O)N[C@@H](CO)C(=O)N[C@H]2CSSC[C@H](NC(=O)[C@H](CCC(=O)O)NC(=O)[C@H](CCCCN)NC(=O)[C@H](CC(=O)O)NC(=O)[C@H](CCSC)NC(=O)[C@H](CC(C)C)NC(=O)[C@H](CO)NC(=O)[C@H](CO)NC2=O)C(=O)N[C@@H](C(C)C)C(=O)N[C@@H](Cc2ccc(O)cc2)C(=O)N[C@@H](Cc2ccccc2)C(=O)N1)C(=O)N[C@H](C(=O)N[C@@H](Cc1c[nH]c2ccccc12)C(=O)O)[C@@H](C)CC [ET-1] | <30% | 92 | –
CC[C@H](C)[C@@H]1NC(=O)[C@H](CCCNC(=N)N)NC(=O)[C@H](CC(=O)O)NC(=O)[C@H](CCSC)NC(=O)[C@H](CCCNC(=N)N)NC(=O)CNC(=O)CNC(=O)[C@H](Cc2ccccc2)NC(=O)[C@@H](NC(=O)[C@H](CO)NC(=O)[C@H](CO)NC(=O)[C@H](CCCNC(=N)N)NC(=O)[C@H](CCCNC(=N)N)NC(=O)[C@H](CC(C)C)NC(=O)[C@@H](N)CO)CSSC[C@@H](C(=O)N[C@@H](CC(N)=O)C(=O)N[C@@H](CO)C(=O)N[C@@H](Cc2ccccc2)C(=O)N[C@@H](CCCNC(=N)N)C(=O)N[C@@H](Cc2ccc(O)cc2)C(=O)O)NC(=O)CNC(=O)[C@H](CC(C)C)NC(=O)CNC(=O)[C@H](CO)NC(=O)[C@H](CCC(N)=O)NC(=O)[C@H](C)NC(=O)CNC1=O [ANP] | 5% | >95 | % Hydrolysis by IGS5 Polypeptide (IGS5 polypeptide; 500 μg IGS5 polypeptide): 80%
RPPGFSPFR [Bradykinin] | 100% | – | % Hydrolysis by IGS5 Polypeptide (IGS5 polypeptide; 10 μg IGS5 polypeptide): 62%
Substance P: vasoactive peptide tested as substrate | 100% | >95 | –
